Source: patent US12178205B2, “Systems and methods for storing and preserving implantable devices” (Rutgers, The State University of New Jersey, priority 2016, dated 2024)

Tested on: Staphylococcus aureus (ATCC 6538)
Assay: Antimicrobial effectiveness of zinc chloride on Staphylococcus aureus suspension (exposure, neutralization, assay for survivors)
Format: cell-based
Conditions: for CFU/mL of Survivors / Log10 Survivors: 37±1° C.; for Number of Survivors: duplicate plate counts; for Percent Reduction: vs test population control 4.68 × 10^5 CFU/mL; for Log10 Reduction: vs test population control Log10 5.67
Protocol: (§1) A suspension of test organism Staphylococcus aureus (ATCC 6538) was obtained by adding colonies on tryptic soy agar and 5% Sheep Blood (BAP) with incubation parameters of 35° C.-37° C., aerobic in 0.85% saline to match a 3.0 McFarland standard. The suspension was exposed to a test substance of zinc chloride at specified concentrations of 0.1%, 0.3%, and 0.5% from a 1% stock solution at specified exposure times of 10 minutes, 2 hours, 6 hours, and 24 hours at a temperature of 37±1° C. (37.2° C.). Latheen broth and 1% sodium bicarbonate (9.9 mL) were used as a neutralizer. After exposure, an aliquot of the suspension was transferred to the neutralizer and was assayed for survivors.
as §1

[1] = exposure 10 minutes, dilution (volume plated) 10^0 (0.100 mL)
[2] = exposure 10 minutes, dilution (volume plated) 10^0 (1.00 mL)

Question: How did the “CFU/mL of Survivors” value (exposure 10 minutes) turn out when `[Cl-].[Cl-].[Zn+2]` [0.1% Zinc Chloride, zinc chloride] was run?
Answer: Its value is 6.8 × 10^5 CFU/mL.

Question: What about the “Log10 Survivors” value (exposure 10 minutes) of the same compound?
Answer: The value was 5.83.

Question: And the “Number of Survivors” value [1]?
Answer: Its value is “T, T”.

Question: And the “Number of Survivors” value [2]?
Answer: The value was “T, T”.

Question: What about the “Number of Survivors” value (exposure 10 minutes, dilution (volume plated) 10^1 (0.100 mL)) of the same compound?
Answer: The value was “T, T”.

Question: And the “Percent Reduction” value (exposure 10 minutes)?
Answer: The value was “None”.

Question: What about the “Log10 Reduction” value (exposure 10 minutes) of the same compound?
Answer: The value was “None”.

Question: What about the “CFU/mL of Survivors” value (exposure 2 hours) of the same compound?
Answer: The value was 4.9 × 10^2 CFU/mL.

Question: What about the “Log10 Survivors” value (exposure 2 hours) of the same compound?
Answer: The value was 2.69.

Question: What about the “Percent Reduction” value (exposure 2 hours) of the same compound?
Answer: Its value is >99.8%.

Question: And the “Log10 Reduction” value (exposure 2 hours)?
Answer: The value was 2.98.

Question: What about the “CFU/mL of Survivors” value (exposure 6 hours) of the same compound?
Answer: Its value is 2.3 × 10^2 CFU/mL.

Question: What about the “Log10 Survivors” value (exposure 6 hours) of the same compound?
Answer: Its value is 2.36.

Question: What about the “Percent Reduction” value (exposure 6 hours) of the same compound?
Answer: Its value is >99.9%.

Question: What about the “Log10 Reduction” value (exposure 6 hours) of the same compound?
Answer: Its value is 3.31.

Question: And the “CFU/mL of Survivors” value (exposure 24 hours)?
Answer: The value was 4 × 10^1 CFU/mL.

Question: And the “Log10 Survivors” value (exposure 24 hours)?
Answer: The value was 1.60.

Question: And the “Percent Reduction” value (exposure 24 hours)?
Answer: Its value is 99.99%.

Question: What about the “Log10 Reduction” value (exposure 24 hours) of the same compound?
Answer: The value was 4.07.

Question: `[Cl-].[Cl-].[Zn+2]` [0.3% Zinc Chloride, zinc chloride] was tested. Which “CFU/mL of Survivors” value (exposure 10 minutes) did it give?
Answer: Its value is 5.9 × 10^4 CFU/mL.

Question: And the “Log10 Survivors” value (exposure 10 minutes)?
Answer: Its value is 4.77.

Question: What about the “Number of Survivors” value [1] of the same compound?
Answer: The value was “T, T”.

Question: What about the “Number of Survivors” value [2] of the same compound?
Answer: The value was “T, T”.

Question: And the “Percent Reduction” value (exposure 10 minutes)?
Answer: The value was 87.4%.

Question: And the “Log10 Reduction” value (exposure 10 minutes)?
Answer: The value was 0.90.

Question: And the “CFU/mL of Survivors” value (exposure 2 hours)?
Answer: Its value is 1 × 10^1 CFU/mL.

Question: And the “Log10 Survivors” value (exposure 2 hours)?
Answer: The value was 1.00.

Question: What about the “Percent Reduction” value (exposure 2 hours) of the same compound?
Answer: Its value is >99.99%.

Question: What about the “Log10 Reduction” value (exposure 2 hours) of the same compound?
Answer: Its value is 4.67.

Question: What about the “CFU/mL of Survivors” value (exposure 6 hours) of the same compound?
Answer: Its value is <5 CFU/mL.

Question: What about the “Log10 Survivors” value (exposure 6 hours) of the same compound?
Answer: Its value is <0.70.

Question: What about the “Percent Reduction” value (exposure 6 hours) of the same compound?
Answer: Its value is >99.99%.

Question: And the “Log10 Reduction” value (exposure 6 hours)?
Answer: Its value is >4.97.

Question: And the “CFU/mL of Survivors” value (exposure 24 hours)?
Answer: The value was <5 CFU/mL.

Question: And the “Log10 Survivors” value (exposure 24 hours)?
Answer: Its value is <0.70.

Question: And the “Percent Reduction” value (exposure 24 hours)?
Answer: Its value is >99.99%.

Question: And the “Log10 Reduction” value (exposure 24 hours)?
Answer: The value was >4.97.

Question: For `[Cl-].[Cl-].[Zn+2]` [0.5% Zinc Chloride, zinc chloride], which “CFU/mL of Survivors” value (exposure 10 minutes) is on record?
Answer: Its value is 2.9 × 10^4 CFU/mL.

Question: And the “Log10 Survivors” value (exposure 10 minutes)?
Answer: Its value is 4.46.

Question: And the “Number of Survivors” value [1]?
Answer: The value was “T, T”.

Question: What about the “Number of Survivors” value [2] of the same compound?
Answer: The value was “T, T”.

Question: And the “Percent Reduction” value (exposure 10 minutes)?
Answer: The value was 93.8%.

Question: And the “Log10 Reduction” value (exposure 10 minutes)?
Answer: The value was 1.21.

Question: What about the “CFU/mL of Survivors” value (exposure 2 hours) of the same compound?
Answer: Its value is 1 × 10^1 CFU/mL.

Question: What about the “Log10 Survivors” value (exposure 2 hours) of the same compound?
Answer: Its value is 1.00.

Question: And the “Percent Reduction” value (exposure 2 hours)?
Answer: The value was >99.99%.

Question: What about the “Log10 Reduction” value (exposure 2 hours) of the same compound?
Answer: The value was 4.67.

Question: And the “CFU/mL of Survivors” value (exposure 6 hours)?
Answer: The value was <5 CFU/mL.

Question: And the “Log10 Survivors” value (exposure 6 hours)?
Answer: The value was <0.70.

Question: And the “Percent Reduction” value (exposure 6 hours)?
Answer: The value was >99.99%.

Question: What about the “Log10 Reduction” value (exposure 6 hours) of the same compound?
Answer: Its value is >4.97.

Question: And the “CFU/mL of Survivors” value (exposure 24 hours)?
Answer: Its value is <5 CFU/mL.

Question: What about the “Log10 Survivors” value (exposure 24 hours) of the same compound?
Answer: The value was <0.70.

Question: What about the “Percent Reduction” value (exposure 24 hours) of the same compound?
Answer: Its value is >99.99%.

Question: And the “Log10 Reduction” value (exposure 24 hours)?
Answer: Its value is >4.97.
